The target of one experiment is T1, hCPT2 (Homo sapiens, UniProt P23786).
T1 construct: made in house; host or cells: Pichia pastoris strain X-33 (pGAPZB/pGAPZA), crude cell-free extract
T1 sequence (P23786 26-658): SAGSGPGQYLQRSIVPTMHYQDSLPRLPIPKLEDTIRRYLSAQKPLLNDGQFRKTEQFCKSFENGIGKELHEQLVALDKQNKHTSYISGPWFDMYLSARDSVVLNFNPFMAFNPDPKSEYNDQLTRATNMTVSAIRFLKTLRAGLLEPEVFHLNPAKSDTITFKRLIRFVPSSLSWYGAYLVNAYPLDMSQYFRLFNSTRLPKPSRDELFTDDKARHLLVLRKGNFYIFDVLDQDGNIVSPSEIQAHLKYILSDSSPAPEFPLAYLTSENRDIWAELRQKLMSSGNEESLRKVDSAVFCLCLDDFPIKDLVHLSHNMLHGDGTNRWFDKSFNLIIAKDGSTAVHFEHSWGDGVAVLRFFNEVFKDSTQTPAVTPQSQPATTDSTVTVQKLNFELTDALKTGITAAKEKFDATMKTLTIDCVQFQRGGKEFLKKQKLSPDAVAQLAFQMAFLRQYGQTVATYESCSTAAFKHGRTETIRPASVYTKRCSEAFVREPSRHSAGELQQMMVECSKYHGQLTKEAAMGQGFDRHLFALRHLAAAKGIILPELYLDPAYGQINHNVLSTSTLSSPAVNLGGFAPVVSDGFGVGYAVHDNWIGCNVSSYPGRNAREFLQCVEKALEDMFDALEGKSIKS
Nature of the experiment: hCPT2 inhibition (spectrophotometric DTNB CPT activity assay). The format is biochemical. The following applies: human CPT2 expressed in P. pastoris, cell extract; carnitine 500 μM, palmitoyl-CoA 80 μM, DTNB 300 μM. As to the method: (§1) The following tests were carried out in order to determine the activity of the compounds of the present invention. Background information on the performed assays can be found in: Jackson et al., 1999, Biochem. J. 341, 483-489 and Jackson et al., 2000, J. Biol. Chem. 275, 19560-19566.
(§2) Human and rat CPT2- and liver CPT1 cDNAs, and human muscle CPT1 cDNA were subcloned in pGAPZB or pGAPZA, respectively. These plasmids were used to transform P. pastoris strain X-33 via electroporation after the preparation of electrocompetent cells. High copy number clones were selected where necessary using 0.5 or 1 mg/ml Zeocin. Cultures for activity measurements were induced for 16 h in YPD medium (1% yeast extract, 2% peptone, 2% glucose). Crude cell extracts were prepared by disrupting the cells with glass beads or French Press, depending on fermenter sizes. After centrifugation, the cell-free extracts were resuspended in cell breaking buffer (50 mM Tris, pH7.4, 100 mM KCl, 1 mM EDTA) in the presence of a protease inhibitor cocktail, before aliquoting and freezing at −20° C.
(§3) CPT activity was measured using a spectrophotometric assay using 5,5′-dithio-bis-(2-nitrobenzoic acid) (DTNB) also called Ellman's reagent. The HS-CoA released on the formation of acylcarnitine from carnitine (500 μM) and palmitoyl-CoA (80 μM) reduced DTNB (300 μM) forming 5-mercapto-2-nitrobenzoic acid which absorbed at 410 nm with a molar extinction coefficient of 13600 M^−1 cm^−1. The assay buffer contained 120 mM KCl, 25 mM Tris, pH 7.4, 1 mM EDTA. This assay was used for the identification of CPT inhibitors, particularly/preferentially CPT2-selective inhibitors, versus the liver and muscle CPT1 isoforms.

The target of another experiment is T2, hL-CPT1 (Homo sapiens, UniProt P50416).
T2 construct: made in house; host or cells: Pichia pastoris strain X-33 (pGAPZB/pGAPZA), crude cell-free extract
T2 sequence (P50416 1-773): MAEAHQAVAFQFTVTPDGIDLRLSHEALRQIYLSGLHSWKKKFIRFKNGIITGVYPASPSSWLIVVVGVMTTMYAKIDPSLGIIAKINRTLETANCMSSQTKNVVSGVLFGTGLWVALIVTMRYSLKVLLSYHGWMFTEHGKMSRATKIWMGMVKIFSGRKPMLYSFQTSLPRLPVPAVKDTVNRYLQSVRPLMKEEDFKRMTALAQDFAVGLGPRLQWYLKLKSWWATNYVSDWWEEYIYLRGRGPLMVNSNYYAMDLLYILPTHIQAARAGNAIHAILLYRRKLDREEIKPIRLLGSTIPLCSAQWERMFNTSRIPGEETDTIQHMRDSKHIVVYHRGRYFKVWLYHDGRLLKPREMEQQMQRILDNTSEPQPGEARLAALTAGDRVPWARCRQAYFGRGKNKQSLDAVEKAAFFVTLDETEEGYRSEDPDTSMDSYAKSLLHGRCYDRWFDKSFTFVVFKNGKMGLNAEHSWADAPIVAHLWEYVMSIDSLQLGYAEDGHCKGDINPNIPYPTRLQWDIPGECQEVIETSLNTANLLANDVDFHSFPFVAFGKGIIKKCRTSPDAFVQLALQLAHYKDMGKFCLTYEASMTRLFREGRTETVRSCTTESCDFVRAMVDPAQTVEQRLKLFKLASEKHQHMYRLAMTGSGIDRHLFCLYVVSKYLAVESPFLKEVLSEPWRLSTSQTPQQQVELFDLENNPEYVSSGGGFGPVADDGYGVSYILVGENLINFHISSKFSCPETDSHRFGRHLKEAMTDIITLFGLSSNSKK
Nature of the experiment: hL-CPT1 inhibition (spectrophotometric DTNB CPT activity assay). In kind it is biochemical. The following applies: human liver CPT1 expressed in P. pastoris, cell extract; carnitine 500 μM, palmitoyl-CoA 80 μM, DTNB 300 μM. The procedure:
as §1, §2, §3

As for `C[N+](C)(C)C[C@@H](CC(=O)[O-])NC(=O)CCCCCCCOCc1ccc(C(F)(F)F)c(F)c1` [Example 7, (R)-3-[8-(3-Fluoro-4-trifluoromethyl-benzyloxy)-octanoylamino]-4-trimethylammonio-butyrate], the IC50 against hCPT2 was 32.3 nM; at hL-CPT1, 2250 nM.

On to `C[N+](C)(C)C[C@@H](CC(=O)[O-])NC(=O)CCCCCCCCCc1cccc2ccccc12` [Example 24, (R)-3-(10-Naphthalen-1-yl-decanoylamino)-4-trimethylammonio-butyrate], for which the half-maximal inhibitory concentration (IC50) against hCPT2 was determined as 21.2 nM; on hL-CPT1 it was 3980 nM.

On to `C[N+](C)(C)C[C@@H](CC(=O)[O-])NC(=O)CCCCCCCOCc1cccc2ccccc12` [Example 12, (R)-3-[8-(Naphthalen-1-ylmethoxy)-octanoylamino]-4-trimethylammonio-butyrate], for which the IC50 was 41 nM at hCPT2 and > 10000 nM against hL-CPT1.

As to `C[N+](C)(C)C[C@@H](CC(=O)[O-])NC(=O)CCCCCCCOCc1ccc(-c2ccccc2)cc1` [Example 9, (R)-3-[8-(Biphenyl-4-ylmethoxy)-octanoylamino]-4-trimethylammonio-butyrate], the figures for the IC50 at hCPT2 and against hL-CPT1 were 1.2 nM and 1090 nM, respectively.

Turning to `C[N+](C)(C)C[C@@H](CC(=O)[O-])NC(=O)CCCCCCCOCc1cccc(F)c1` [Example 15, (R)-3-[8-(3-Fluoro-benzyloxy)-octanoylamino]-4-trimethylammonio-butyrate], the IC50 was 29.4 nM against hCPT2 and 3250 nM at hL-CPT1.

Turning to `COc1ccc(COCCCCCCCC(=O)N[C@H](CC(=O)[O-])C[N+](C)(C)C)cc1` [Example 8, (R)-3-[8-(4-Methoxy-benzyloxy)-octanoylamino]-4-trimethylammonio-butyrate], the half-inhibitory concentration (IC50) against hCPT2 came to 53.7 nM; against hL-CPT1 it was 7190 nM.

As for `C[N+](C)(C)C[C@@H](CC(=O)[O-])NC(=O)CCCCCCCCCc1cccc(F)c1` [Example 26, (R)-3-[10-(3-Fluoro-phenyl)-decanoylamino]-4-trimethylammonio-butyrate], the half-maximal inhibitory concentration (IC50) against hCPT2 is 8.1 nM; against hL-CPT1, 1820 nM.

In the case of `C[N+](C)(C)C[C@@H](CC(=O)[O-])NC(=O)CCCCCCCOCc1ccc(F)cc1F` [Example 3, (R)-3-[8-(2,4-Difluoro-benzyloxy)-octanoylamino]-4-trimethylammonio-butyrate], the results for the 50% inhibitory concentration (IC50) against hCPT2 and at hL-CPT1 were 298 nM and 1120 nM, respectively.

For the compound `C[N+](C)(C)C[C@@H](CC(=O)[O-])NC(=O)CCCCCCCCCCc1ccccc1` [Example 33, (R)-3-(11-Phenyl-undecanoylamino)-4-trimethylammonio-butyrate], the half-maximal inhibitory concentration (IC50) against hCPT2 worked out at 486 nM; at hL-CPT1 it was 6080 nM.

Consider `C[N+](C)(C)C[C@@H](CC(=O)[O-])NC(=O)CCCCCCCCCc1ccccc1` [Example 18, (R)-3-(10-Phenyl-decanoylamino)-4-trimethylammonio-butyrate], for which the half-inhibitory concentration (IC50) amounted to 14.5 nM on hCPT2 and 621 nM against hL-CPT1.

As to `C[N+](C)(C)C[C@@H](CC(=O)[O-])NC(=O)CCCCCCCc1ccccc1` [Example 31, (R)-3-(8-phenyl-octanoylamino)-4-trimethylammonio-butyrate], the results for the 50% inhibitory concentration (IC50) on hCPT2 and at hL-CPT1 were 538 nM and 1380 nM, respectively.

Regarding `C[N+](C)(C)C[C@@H](CC(=O)[O-])NC(=O)CCCCCCCOCc1ccc(C(F)(F)F)cc1` [Example 6, (R)-3-[8-(4-Trifluoromethyl-benzyloxy)-octanoylamino]-4-trimethylammonio-butyrate], the values for the half-inhibitory concentration (IC50) on hCPT2 and at hL-CPT1 were 32.1 nM and 4340 nM, respectively.

For the compound `C[N+](C)(C)C[C@@H](CC(=O)[O-])NC(=O)CCCCCCCCCc1ccsc1` [Example 28, (R)-3-(10-Thiophen-3-yl-decanoylamino)-4-trimethylammonio-butyrate], the half-maximal inhibitory concentration (IC50) against hCPT2 worked out at 20.2 nM; against hL-CPT1, 854 nM.

With `C[N+](C)(C)C[C@@H](CC(=O)[O-])NC(=O)CCCCCCCCCCCc1ccccc1` [Example 34, (R)-3-(12-Phenyl-dodecanoylamino)-4-trimethylammonio-butyrate], the IC50 was found to be 16.6 nM on hCPT2 and 427 nM against hL-CPT1.

For `C[N+](C)(C)C[C@@H](CC(=O)[O-])NC(=O)CCCCCCCOCc1ccc(F)c(F)c1` [Example 1, (R)-3-[8-(3,4-Difluoro-benzyloxy)-octanoylamino]-4-trimethylammonio-butyrate], the 50% inhibitory concentration (IC50) against hCPT2 was found to be 73.2 nM; against hL-CPT1, 2190 nM.

On to `C[N+](C)(C)C[C@@H](CC(=O)[O-])NC(=O)CCCCCCCCc1ccccc1` [Example 32, (R)-3-(9-Phenyl-nonanoylamino)-4-trimethylammonio-butyrate], for which the figures for the half-maximal inhibitory concentration (IC50) against hCPT2 and against hL-CPT1 were 246 nM and 2370 nM, respectively.

In the case of `C[N+](C)(C)C[C@@H](CC(=O)[O-])NC(=O)CCCCCCCCCc1ccc(C(F)(F)F)cc1` [Example 25, (R)-4-Trimethylammonio-3-[10-(4-trifluoromethyl-phenyl)-decanoylamino]-butyrate], the figures for the half-inhibitory concentration (IC50) against hCPT2 and at hL-CPT1 were 125 nM and 3070 nM, respectively.

As for `C[N+](C)(C)C[C@@H](CC(=O)[O-])NC(=O)CCCCCCCOCc1cc(F)ccc1F` [Example 2, (R)-3-[8-(2,5-Difluoro-benzyloxy)-octanoylamino]-4-trimethylammonio-butyrate], the values for the IC50 on hCPT2 and against hL-CPT1 were 125 nM and 5630 nM, respectively.

For the origin of these results see patent US8349893B2, “4-trimethylammonio-butyrates as CPT2 inhibitors” (Hoffmann-La Roche Inc., priority 2008, dated 2013).
